# Assay results taken from patent US12258336B2, “Preparation of seimicarbazide-sensitive amine oxidase inhibitor and use thereof” (SHANGHAI ENNOVABIO PHARMACEUTICALS CO., LTD., priority 2018, dated 2025).
# Like-named read-outs stand apart in the source and are kept apart here.
# Tests used:
# rat SSAO protein = molecular target: T1, rat SSAO protein (Rattus norvegicus, UniProt O08590); assay: In vitro inhibitory activity on SSAO/VAP-1 (MAO-Glo assay), rat; type: biochemical
# T1 construct: Eli Lilly (provided, not a catalogue product)
# T1 sequence (O08590 1-763): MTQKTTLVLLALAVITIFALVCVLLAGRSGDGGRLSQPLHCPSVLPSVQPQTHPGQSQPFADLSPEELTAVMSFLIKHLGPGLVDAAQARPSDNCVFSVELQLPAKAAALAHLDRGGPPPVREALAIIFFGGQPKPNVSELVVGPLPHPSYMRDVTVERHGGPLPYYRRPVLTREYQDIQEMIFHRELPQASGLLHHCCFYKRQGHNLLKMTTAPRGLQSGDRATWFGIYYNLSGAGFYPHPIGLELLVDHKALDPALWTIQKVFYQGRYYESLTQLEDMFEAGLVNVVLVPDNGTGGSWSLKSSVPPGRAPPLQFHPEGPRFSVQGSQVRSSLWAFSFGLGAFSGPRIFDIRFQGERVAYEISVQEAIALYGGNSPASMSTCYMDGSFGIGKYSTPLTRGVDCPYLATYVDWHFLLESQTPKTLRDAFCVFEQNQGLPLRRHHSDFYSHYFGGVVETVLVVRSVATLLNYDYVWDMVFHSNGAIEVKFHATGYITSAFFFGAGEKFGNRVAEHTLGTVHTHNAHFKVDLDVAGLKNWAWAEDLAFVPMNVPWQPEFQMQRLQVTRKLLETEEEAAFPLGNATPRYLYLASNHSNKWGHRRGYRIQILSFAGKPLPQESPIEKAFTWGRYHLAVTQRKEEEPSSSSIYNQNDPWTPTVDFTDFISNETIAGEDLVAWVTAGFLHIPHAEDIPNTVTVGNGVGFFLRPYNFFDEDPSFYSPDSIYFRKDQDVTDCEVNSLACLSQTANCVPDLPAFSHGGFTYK
# Experimental: This assay was used to evaluate the in vitro inhibitory activity of the compounds on SSAO/VAP-1 of different species. Recombinant human SSAO protein, mouse SSAO protein or rat SSAO protein (provided by Eli Lilly) were used. The enzyme activity detection kit, MAO-Glo Assay kit (V1402) was purchased from Promega. Enzyme reaction buffer (50 mM HEPES, 120 mM NaCl, 5 mM KCl, 2 mM CaCl2, 1.4 mM MgCl2, 0.001% Tween-20, pH7.4) was prepared. The test compound was dissolved in DMSO and diluted by 3-fold concentration in gradient. The final concentration of test compound in a 10 μL reaction system was 1 μM to 0.05 nM when SSAO was detected. The content of DMSO in the detection reaction was 1%. After the solution of test compound in DMSO was diluted in the enzyme reaction buffer at a volume ratio of 1:25, 2.5 μL of which was added to each well of detection plate, two replicates for each concentration. 5 μL of SSAO protein diluted in the enzyme reaction buffer was added to each well, the final concentration of which was 10 nM to 80 nM in 10 μL reaction system. The mixture was incubated at room temperature for 10 minutes. 2.5 μL of the reaction substrate diluted in the enzyme reaction buffer was added to each well, the final concentration of which was 10 μM in 10 μL reaction system. After the mixture was reacted at room temperature for 120 minutes, 10 μL of detection reagent was added to each well. The reaction solution was incubated for 20 minutes at room temperature, and the plate was read with Synergy Neo 2 for detection. The value was converted into inhibition rate by the following formula: Inhibition rate=(Signalpositive−Signaltest)/(Signalpositive−Signalnegative)×100%
# Signalpositive was positive control without test compound. Signalnegative was negative control without test compound and SSAO enzyme, and Signaltest was detection value of each compound at different concentrations. IC50 value was calculated by using 4 parameter curve fitting.
# SSAO/VAP-1 = molecular target: T2, SSAO/VAP-1 (Rattus norvegicus, UniProt O08590); assay: Inhibitory activity on SSAO/VAP-1 in animal tissues after oral administration; type: in vivo; conditions: 24 hours post single administration, mean ± SEM
# T2 construct: from tissue; host or cells: rat plasma, brain, retina, small intestine, lung, liver, kidney
# T2 sequence (O08590 1-763): T1 sequence (O08590 1-763)
# Experimental: MAO-Glo Assay kit (Promega, V1402) was used to determine the activity of SSAO in animal tissues. After test compounds were adminstered to the animal, SSAO enzyme activity was calculated by measuring the activity of the monoamine oxidases in the animal tissue homogenate that was insensitive to MAO inhibitors Clogyline and Pargyline. The compounds were orally administered to rats at different doses, and same volume of vehicle was orally administered to control animals. Animal plasma, brain, retina, small intestine, lung, liver, and kidney were respectively collected 24 hours after administration (the animals were perfused with PBS before the collection of small intestine, lung, liver, and kidney) and stored in a −80° C. refrigerator until analysis. Each tissue was homogenized in tissue homogenate lysis buffer (20 mM HEPES, pH 7.4, 150 mM NaCl, 1 mM EDTA, 1 mM EGTA, 1% Triton X-100 and 1× Roche Complete protease inhibitor tablet). The homogenate was centrifuged at 12000 rpm at 4° C. for 30 minutes to remove tissue fragments. 5 μL of supernatant and 2 μL of mixture of Clogyline (10 μM) and Pargyline (10 μM) were incubated for 10 minutes at room temperature. Then 2 μL of substrate from MAO-Glo assay kit was added to the mixture, and reacted at room temperature for 60 minutes. Detection reagents were added to quench the reaction according to instructions. The fluorescein data was read by Biotek Neo2. The activity of monoamine oxidase in tissues that is not sensitive to MAO inhibitors was used to represent the activity of SSAO. Percentage of SSAO activity in administered animals was compared with that of control animals to calculate the compound inhibition rate.
# [1] = brain, read-out: remaining SSAO activity percentage (SSAO activity %), Brain
# [2] = plasma, read-out: remaining SSAO activity percentage (SSAO activity %), Plasma
# [3] = retina, read-out: remaining SSAO activity percentage (SSAO activity %), Retina
SMILES,IC50 (rat SSAO protein),remaining activity at 0.6 mg/kg (SSAO/VAP-1; [1]),remaining activity at 0.6 mg/kg (SSAO/VAP-1; [2]),remaining activity at 0.6 mg/kg (SSAO/VAP-1; [3]),remaining activity at 1 mg/kg (SSAO/VAP-1; [1]),remaining activity at 1 mg/kg (SSAO/VAP-1; [2]),remaining activity at 1 mg/kg (SSAO/VAP-1; [3])
COC1CC2CC1CN2c1ncc(OC/C(=C/F)CN)cn1 (stereo not shown) [Example 2],< 100 nM,49.1 ± 21.2%,24.3 ± 5.2%,28.7 ± 8.5%,–,–,–
CC1(C)CN(c2ncc(OC/C(=C/F)CN)cn2)CCN1C1COC1 [Example 10],–,27.3 ± 1.8%,5.8 ± 2.1%,8 ± 0.8%,–,–,–
NC/C(=C\F)COc1cnc(N2CCC3(CC2)COC3)nc1 [Example 3],–,–,–,–,55.6 ± 10.5%,15.2 ± 2.6%,8.9 ± 3.2%
